Literature values as cited in patent US20180110939A1, “METHOD, SYSTEM AND APPARATUS FOR CONTROLLED DELIVERY OF OPIOID AND OTHER MEDICATIONS” (Somniferum Labs LLC, priority 2016, published 2018).

What was measured:
[1] = in vivo
[2] = for share of the total area under the concentration-time curve of morphine and its principle metabolites: following intravenous (IV) morphine administration in humans
[3] = in vivo; remark: listed apart in the source
[4] = converted via the liver

| SMILES | plasma protein binding | LD50 (lethal dose) [1] | time from which M-6-G was present in higher concentrations than morphine ([2]; following IV administration, h.p.l.c. method) [h] | share of the total area under the concentration-time curve of morphine and its principle metabolites [2] | plasma concentrations higher than morphine [3] | amount generated relative to M-6-G from a given amount of morphine [4] [times] |
| --- | --- | --- | --- | --- | --- | --- |
| CN1CC[C@]23c4c5ccc(O)c4O[C@H]2[C@@H](O[C@@H]2O[C@H](C(=O)O)[C@@H](O)[C@H](O)[C@H]2O)C=C[C@H]3[C@H]1C5 [M-6-G, morphine-6-glucuronide] | low | no LD50 | ≥ 1 | 15% | approximately 4 fold | – |
| CN1CC[C@]23c4c5ccc(O[C@@H]6O[C@H](C(=O)O)[C@@H](O)[C@H](O)[C@H]6O)c4O[C@H]2[C@@H](O)C=C[C@H]3[C@H]1C5 [M-3-G, morphine-3-glucuronide, reference compound] | – | – | – | approximately 75% | – | 5 |
